The values that follow come from patent US12662461B2, “Tricyclic compound and pharmaceutical use thereof” (JD BIOSCIENCE INC., priority 2019, dated 2026).

Structures can show the parent of a compound that is named as a salt.

serotonin 2A (5-HT2A) receptor, sequence (P28223 whole entry, species assumed): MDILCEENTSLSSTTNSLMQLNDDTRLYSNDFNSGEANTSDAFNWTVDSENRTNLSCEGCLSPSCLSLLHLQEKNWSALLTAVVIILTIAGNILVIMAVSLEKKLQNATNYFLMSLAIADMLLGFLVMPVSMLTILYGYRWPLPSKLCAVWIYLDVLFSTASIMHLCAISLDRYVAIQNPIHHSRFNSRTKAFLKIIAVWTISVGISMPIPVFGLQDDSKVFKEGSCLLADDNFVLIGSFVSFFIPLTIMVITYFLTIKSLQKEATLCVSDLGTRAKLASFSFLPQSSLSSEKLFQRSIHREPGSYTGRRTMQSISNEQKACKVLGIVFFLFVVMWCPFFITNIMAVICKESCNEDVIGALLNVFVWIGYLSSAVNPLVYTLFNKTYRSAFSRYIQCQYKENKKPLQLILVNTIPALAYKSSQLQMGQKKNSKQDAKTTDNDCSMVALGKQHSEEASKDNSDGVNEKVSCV

In the assay the target is serotonin 2A (5-HT2A) receptor (Homo sapiens, UniProt P28223). The assay can be described thus: Measurement of inhibitory activity against serotonin 2A receptor (in vitro). It is filed as biochemical. Particulars: inhibitory activity against serotonin 2A (5-HT2A) receptor. An excerpt:
Experimental Example: Measurement of Inhibitory Activity Against Serotonin 2A Receptor
Regarding `N[C@@H](Cc1ccc(OCCCCN2CCC(=C3c4ccc(Cl)cc4CCc4cccnc43)CC2)cc1)C(=O)O` [Example 14, (S)-2-amino-3-(4-(4-(4-(8-chloro-5,6-dihydro-11H-benzo[5,6]cyclohepta[1,2-b]pyridin-11-ylidene)piperidin-1-yl)butoxy)phenyl)propionic acid trihydrochloride], the midpoint of inhibition, the IC50, lay at 188 nM.
As to `OC(CN1CCC(=C2c3ccc(Cl)cc3CCc3cccnc32)CC1)c1ccc(Br)cc1` (stereo not shown) [Example 27, 1-(4-bromophenyl)-2-(4-(8-chloro-5,6-dihydro-11H-benzo[5,6]cyclohepta [1,2-b]pyridin-11-ylidene)piperidin-1-yl)ethan-1-ol], the IC50 was 1.19 nM. Compared with the last compound, the IC50 is about 160-fold lower.
Turning to `O=C(CN1CCC(=C2c3ccc(Cl)cc3CCc3cccnc32)CC1)c1ccc(Br)cc1` [Example 24, 1-(4-bromophenyl)-2-(4-(8-chloro-5,6-dihydro-11H-benzo[5,6]cyclohepta[1,2-b]pyridin-11-ylidene)piperidin-1-yl)ethan-1-one], the IC50 is 8.1 nM.
Under `COc1cccc(CCc2ccccc2OCC(O)CN2CCC(=C3c4ccc(Cl)cc4CCc4cccnc43)CC2)c1` (stereo not shown) [Example 60, 1-(4-(8-chloro-5,6-dihydro-11H-benzo[5,6]cyclohepta[1,2-b]pyridin-11-ylidene)piperidin-1-yl)-3-(2-(3-methoxyphenethyl)phenoxy)propan-2-ol] stands 30.8 nM.
To `O=C1C2C(C(=O)N1CCCCN1CCC(=C3c4ccc(Cl)cc4CCc4cccnc43)CC1)[C@H]1CC[C@@H]2C1` (stereo partly drawn) [Example 30, (4R,7S)-2-(4-(4-(8-chloro-5,6-dihydro-11H-benzo[5,6]cyclohepta[1,2-b]pyridin-11-ylidene)piperidin-1-yl)butyl)hexahydro-1H-4,7-methanoisoindole-1,3(2H)-dione] belongs 0.15 nM; to `O=C1C2CCCCC2C(=O)N1CCCCN1CCC(=C2c3ccc(Cl)cc3CCc3cccnc32)CC1` (stereo not shown) [Example 19, 2-(4-(4-(8-chloro-5,6-dihydro-11H-benzo[5,6]cyclohepta[1,2-b]pyridin-11-ylidene)piperidin-1-yl)butyl)hexahydro-1H-isoindole-1,3(2H)-dione], 0.19 nM; to `N[C@@H](Cc1ccc(OCCCN2CCC(=C3c4ccc(Cl)cc4CCc4cccnc43)CC2)cc1)C(=O)O` [Example 22, (S)-2-amino-3-(4-(3-(4-(8-chloro-5,6-dihydro-11H-benzo[5,6]cyclohepta[1,2-b]pyridin-11-ylidene)piperidin-1-yl)propoxy)phenyl)propionic acid trihydrochloride], 1.3 nM.
Turning to `CN1CCC(=C2c3ccc(Cl)cc3CCc3cccnc32)CC1` [Example 13, 8-chloro-11-(1-methylpiperidin-4-ylidene)-6,11-dihydro-5H-benzo[5,6]cyclohepta[1,2-b]pyridine], the IC50 stood at 119 nM. This IC50 lies about 92-fold higher than the previous one.
To `N[C@@H](Cc1ccc(OCCCCN2CCC(=C3c4ccc(Cl)cc4CCc4cccnc43)CC2)c(Cl)c1)C(=O)O` [Example 20, (S)-2-amino-3-(3-chloro-4-(4-(4-(8-chloro-5,6-dihydro-11H-benzo[5,6]cyclohepta[1,2-b]pyridin-11-ylidene)piperidin-1-yl)butoxy)phenyl)propionic acid trihydrochloride] belongs 2.08 nM.
Under `N[C@@H](Cc1ccc(OCCCN2CCC(=C3c4ccc(Cl)cc4CCc4cccnc43)CC2)c(Cl)c1)C(=O)O` [Example 21, (S)-2-amino-3-(3-chloro-4-(3-(4-(8-chloro-5,6-dihydro-11H-benzo[5,6]cyclohepta[1,2-b]pyridin-11-ylidene)piperidin-1-yl)propoxy)phenyl)propionic acid trihydrochloride] stands 2.1 nM; under `O=C1CCc2ccc(OCCCCN3CCC(=C4c5ccc(Cl)cc5CCc5cccnc54)CC3)cc2N1` [Example 18, 7-(4-(4-(8-chloro-5,6-dihydro-11H-benzo[5,6]cyclohepta[1,2-b]pyridin-11-ylidene)piperidin-1-yl)butoxy)-3,4-dihydroquinolin-2(1H)-one], 1.3 nM.
Under `Cc1nc2sccn2c1C(O)CN1CCC(=C2c3ccc(Cl)cc3CCc3cccnc32)CC1` (stereo not shown) [Example 15, 2-(4-(8-chloro-5,6-dihydro-11H-benzo[5,6]cyclohepta[1,2-b]pyridin-11-ylidene)piperidin-1-yl)-1-(6-methylimidazo[2,1-b]thiazol-5-yl)ethan-1-ol] stands 30 nM.
On to `O=c1[nH]c2ccccc2c(=O)n1CCN1CCC(=C2c3ccc(Cl)cc3CCc3cccnc32)CC1` [Example 12, 3-(2-(4-(8-chloro-5,6-dihydro-11H-benzo[5,6]cyclohepta[1,2-b]pyridin-11-ylidene)piperidin-1-yl)ethyl)quinazoline-2,4(1H,3H)-dione], for which the IC50 is 47 nM.
